# Results published in US11707442B2, “Antibacterial and antifungal compounds” (The General Hospital Corporation, priority 2015, dated 2023).
# Read-outs that look alike come from different tables or passages of the source.
# Assays:
# A. baumannii = assay: MIC, broth microdilution; format: cell-based, Acinetobacter baumannii; details: Acinetobacter baumannii, ATCC17978; A. baumannii ATCC 17978; read-out: Minimum inhibitory concentration
# Summary of the method: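 MIC by CLSI broth microdilution (M07-A8) in MH broth; E. aerogenes, K. pneumoniae and A. baumannii pre-grown in LB, E. faecium in BHI, at 37° C. Inoculum at initial OD600 0.03, incubated 18 hrs at 35° C., growth read as absorbance at 595 nm.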
# [1] = system: Exponential-phase MRSA cells; assay: Killing kinetics assay; format: cell-based, Staphylococcus aureus; details: 10×MIC, result in words
# Experimental: Killing kinetics assay. An S. aureus overnight culture was diluted 1:10,000 in 25 ml fresh TSB in a 250 ml flask. In order to obtain exponential-phase cells, the diluted cell suspension was incubated at 37° C., with shaking at 225 rpm for 4 h until the OD600 nm was 0.4 (˜2×10^7 CFU/ml). 0.5 ml of the exponential phase cell culture was added to the wells of a 2 ml deep well assay block (Corning Costar 3960) containing 0.5 ml of pre-warmed TSB with twice the desired concentrations of compounds. The assay block was sealed with a gas-permeable Breathe-Easy membrane and incubated at 37° C. shaking at 225 rpm. At specific times, 50 μl samples were removed, serially diluted and spot-plated onto tryptic soy agar (TSA, BD) plates to enumerate the number of cells. These experiments were conducted in triplicate.
# Colony forming unit counts of cells were measured by serial dilution and plating on TSA plates. The data points on the x-axis are below the level of detection (2×10^2 CFU/mL). Results are shown as means±s.d.; n=3.
# MRSA strain MW2 = assay: Checkerboard assay (combination); format: cell-based, Staphylococcus aureus; details: for Fractional inhibitory concentration index (FICI): MRSA strain MW2, synergy FICI ≤ 0.5
# Experimental: Checkerboard assay (e.g., antibiotic synergy test): The antimicrobial or antifungal activity of a combination of a compound of present application with other agents was determined through a checkerboard assay. The checkerboard method for determining synergy of synthetic retinoids with conventional antibiotics can be conducted, for example, as previously described (See, e.g., Rajamuthiah, R. et al. A defensin from the model beetle Tribolium castaneum acts synergistically with telavancin and daptomycin against multidrug resistant Staphylococcus aureus. PLoS ONE 10, e0128576 (2015)) The compounds whose combinations were being tested were arrayed in serial concentrations, vertically for one compound and horizontally for the other compound in the same 96 well microplate. 2-fold serial dilutions of each retinoid were combined with 2-fold serial dilutions of each conventional antibiotic, which created an 8×8 matrix in a 96-well microtiter plate. The rest of the procedure involving addition of pathogen and measurement of growth was carried out as described for measurement of MIC.
# The Fractional Inhibitory Concentration (FIC) index for two compounds, A and B, is defined by the following equation: FIC=((A/MIC^A)+(B/MIC^B)). MIC^A and NIC^B are MICs of compound A or B respectively. (A) is the lowest concentration of compound A in combination with compound B that inhibits growth of a pathogen and (B) is the lowest concentration of compound B that inhibits growth of a pathogen.
# Optical densities at 600 nm were measured after 18 h of incubation at 37° C. The results represent three independent experiments.
# [2] = system: Salmonella typhimurium strains TA 1535 and TA 1538
# Experimental: The Ames test was conducted using histidine auxotroph Salmonella typhimurium strains TA 1535 and TA 1538. To test mutagenic potential of the synthetic retinoids themselves and their metabolic products, the assay was conducted both with and without rat liver S9 fraction (Moltox, Boone, N.C., USA). Briefly, 100 μl of bacterial overnight cultures was added into 500 μl of phosphate buffer containing a range of amounts of the retinoids dissolved in 10 μl DMSO and with or without 4% S9. After incubation at 37° C. for 1 h, the samples were added into 2 ml of soft agar including 0.5 mM of histidine/biotin, mixed, and poured onto minimal glucose agar plates. The plates were incubated at 37° C. for 48 h, and the revertant colonies were counted. 10 μl DMSO was used as a negative control. […] 5 μg/plate 2-aminoanthracene was used as a positive control for both strains in the metabolic activation system. The test was performed in triplicate.
# S. aureus = assay: Minimal inhibitory concentration (MIC), broth microdilution; format: cell-based, Staphylococcus aureus
# Summary of the method: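 MIC values against methicillin-resistant Staphylococcus aureus were determined by standard broth microdilution following Clinical and Laboratory Standards Institute guidance (CLSI document M07-A8). Each well held 100 μl of test compound plus bacterial cells in MH broth, with the starting OD600 set to 0.03. Plates were incubated 18 hrs at 35° C. and absorbance was then read at 595 nm.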
smiles,measurement,setting,value
"O=C(O)/C=C/c1ccc(-c2ccc(O)c(C34CC5CC(CC(C5)C3)C4)c2)cc1 [Adarotene, (2E)-3-(4′-Hydroxy-3′-tricyclo[3.3.1.13,7]dec-1-yl[1,1′-biphenyl]-4-yl)-2-propenoic acid]",MIC,A. baumannii,> 64 µg/mL
same,killing kinetics,[1],fast killing kinetics
same,interaction with gentamicin,"MRSA strain MW2; MRSA MW2, result in words",significant synergistic antimicrobial activity
same,Fractional inhibitory concentration index (FICI),MRSA strain MW2; in combination with Ciprofloxacin,0.75
same,Fractional inhibitory concentration index (FICI),MRSA strain MW2; in combination with Defensin 1,1
same,Fractional inhibitory concentration index (FICI),MRSA strain MW2; in combination with Gentamicin,0.5
same,Fractional inhibitory concentration index (FICI),MRSA strain MW2; in combination with Rifampicin,1
same,Fractional inhibitory concentration index (FICI),MRSA strain MW2; in combination with Vancomycin,1.016
same,genotoxic potential,"[2]; Ames test, result in words",did not show significant genotoxic potential
same,Number of revertants (T1535),"[2]; With S9, 5 μg/plate",6 ± 2
same,Number of revertants (T1538),"[2]; With S9, 5 μg/plate",8 ± 4
same,Number of revertants (T1535),"[2]; With S9, 25 μg/plate",7 ± 3
same,Number of revertants (T1538),"[2]; With S9, 25 μg/plate",8 ± 1
same,Number of revertants (T1535),"[2]; With S9, 100 μg/plate",7 ± 1
same,Number of revertants (T1538),"[2]; With S9, 100 μg/plate",7 ± 3
same,Number of revertants (T1535),"[2]; Without S9, 5 μg/plate",6 ± 1
same,Number of revertants (T1538),"[2]; Without S9, 5 μg/plate",6 ± 1
same,Number of revertants (T1535),"[2]; Without S9, 25 μg/plate",7 ± 3
same,Number of revertants (T1538),"[2]; Without S9, 25 μg/plate",4 ± 3
same,Number of revertants (T1535),"[2]; Without S9, 100 μg/plate",6 ± 2
same,Number of revertants (T1538),"[2]; Without S9, 100 μg/plate",5 ± 2
same,MIC,"S. aureus; MRSA MW2, text b656, read-out: MIC",2 µg/mL
same,MIC,"S. aureus; Staphylococcus aureus, MRSA, 28 clinical MRSA isolates, 1 strain, read-out: MIC",4 µg/mL
same,MIC,"S. aureus; Staphylococcus aureus, S. aureus BF1, read-out: Minimum inhibitory concentration",4 µg/mL
same,MIC,"S. aureus; Staphylococcus aureus, S. aureus BF2, read-out: Minimum inhibitory concentration",2 µg/mL
same,MIC,"S. aureus; Staphylococcus aureus, S. aureus BF3, read-out: Minimum inhibitory concentration",2 µg/mL
same,MIC,"S. aureus; Staphylococcus aureus, S. aureus BF4, read-out: Minimum inhibitory concentration",2 µg/mL
same,MIC,"S. aureus; Staphylococcus aureus, S. aureus BF5, read-out: Minimum inhibitory concentration",2 µg/mL
same,MIC,"S. aureus; Staphylococcus aureus, S. aureus BF6, read-out: Minimum inhibitory concentration",2 µg/mL
same,MIC,"S. aureus; Staphylococcus aureus, S. aureus BF7, read-out: Minimum inhibitory concentration",2 µg/mL
same,MIC,"S. aureus; Staphylococcus aureus, S. aureus BF8, read-out: Minimum inhibitory concentration",2 µg/mL
same,MIC,"S. aureus; Staphylococcus aureus, S. aureus BF9, read-out: Minimum inhibitory concentration",2 µg/mL
same,MIC,"S. aureus; Staphylococcus aureus, S. aureus BF10, read-out: Minimum inhibitory concentration",2 µg/mL
same,MIC,"S. aureus; Staphylococcus aureus, S. aureus BF11, read-out: Minimum inhibitory concentration",2 µg/mL
same,MIC,"S. aureus; Staphylococcus aureus, S. aureus JE2 (wild-type), read-out: MIC",2.5 µg/mL
same,MIC,"S. aureus; Staphylococcus aureus, S. aureus MW2, read-out: Minimum inhibitory concentration",2 µg/mL
same,MIC,"S. aureus; Staphylococcus aureus, S. aureus MW2 mutant SP1-8 (graS)",3 µg/mL
same,MIC,"S. aureus; Staphylococcus aureus, S. aureus MW2 mutant SP1-48 (graS, manA)",4 µg/mL
same,MIC,"S. aureus; Staphylococcus aureus, S. aureus MW2 mutant SP1-74 (graS, manA, MW2474)",4 µg/mL
same,MIC,"S. aureus; Staphylococcus aureus, S. aureus MW2 mutant SP1-100 (graS, manA, MW2474)",4 µg/mL
same,MIC,"S. aureus; Staphylococcus aureus, S. aureus MW2 mutant SP2-13 (yjbH)",3 µg/mL
same,MIC,"S. aureus; Staphylococcus aureus, S. aureus MW2 mutant SP2-52 (yjbH, dltB)",3 µg/mL
same,MIC,"S. aureus; Staphylococcus aureus, S. aureus MW2 mutant SP2-59 (yjbH, dltB, manA)",4 µg/mL
same,MIC,"S. aureus; Staphylococcus aureus, S. aureus MW2 mutant SP2-65 (yjbH, dltB, manA, MW1685)",4 µg/mL
same,MIC,"S. aureus; Staphylococcus aureus, S. aureus MW2 mutant SP2-100 (yjbH dltB, manA, MW1685)",4 µg/mL
same,MIC,"S. aureus; Staphylococcus aureus, S. aureus MW2 serial passage culture SP1-1 (no mutated gene)",2 µg/mL
same,MIC,"S. aureus; Staphylococcus aureus, S. aureus MW2 serial passage culture SP2-1 (no mutated gene)",2 µg/mL
same,MIC,"S. aureus; Staphylococcus aureus, S. aureus NE896 (JE2 yjbH::ϕNΣ)",4 µg/mL
same,MIC,"S. aureus; Staphylococcus aureus, S. aureus NE1645 (JE2 manA::ϕNΣ)",4 µg/mL
same,MIC,"S. aureus; Staphylococcus aureus, S. aureus NE1756 (JE2 graS::ϕNΣ)",4 µg/mL
same,MIC,"S. aureus; Staphylococcus aureus, S. aureus VRS1, read-out: Minimum inhibitory concentration",1 µg/mL
same,MIC,"S. aureus; Staphylococcus aureus, methicillin resistant S. aureus (MRSA) strain MW2, read-out: MIC",2 µg/mL
